Data published in patent US8361802B2, “Fluorescent ozone sensor” (University of Pittsburgh—Of the Commonwealth System of …, priority 2009, dated 2013).

How the values were obtained:
[1] = Concentration dependence / sensitivity of fluorescent ozone detection; conditions: MeOH/pH 7 buffer (5:95), samples diluted 10-fold
Description: FIG. 2B is a correlation between fluorescent intensity and ozone in 5:95 MeOH/pH 7 buffer after ten-fold dilution of original samples. The linear correlation is y=0.000900x+0.0467; R^2=0.987; average standard deviation=0.00844. The intensity continued to be linear up to 12.5 μM.
The present invention the sensitivity of our fluorescent method for ozone detection was examined. The fluorescent intensity correlated to the concentration of ozone in the 50 nM-12.5 μM (2.4-600 ppbv) range with S/B of 2.6-310 after 10-fold dilution of the original samples (0-500 nM shown in FIG. 2B). The level of detection is 59 nM (2.9 ppbv; S/B=3) and the level of quantitation is 340 nM (16 ppbv; S/B=10).
Concentration dependence. […] Error bars were determined from the calculated mean and standard deviation (Prism 5.0a, GraphPad Software, Inc.).

[2] = system: Human bronchial epithelial cells (BEAS-2B); assay: Live-cell imaging of human bronchial epithelial cells; format: cell-based; conditions: human bronchial epithelial cells
Description: Human bronchial epithelial cells (BEAS-2B) (American Type Culture Collectin) were grown in LHC-9 medium (Invitrogen) on glass-bottomed Petri dishes (MatTek) precoated with 0.01 mg ml^−1 of human fibronectin (Invitrogen), 0.029 mg ml^−1 Vitrogen 100 (Cohesion) and 0.01 mg ml^−1 bovine serum albumin (Invitrogen) in LHC-9 medium. Immediately prior to imaging, cells were rinsed with Hank's balanced salt solution, which contained calcium and magnesium, and placed inside a temperature-controlled, airtight environmental chamber and maintained at 37° C. and 5% CO2. Images were obtained using a Nikon TE2000E-PFS (Perfect focus system) microscope equipped with a […] oil-immersion objective (Nikon, CFI PlanFluor, NA 1.3) and a fluorescien isothiocyanate longpass filter set (Chroma), a Q-Imaging SRV CCD camera (Q-imaging) and MetaMorph software (Molecular Devices). The motorized XYZ stage used was made by ASA (Eugege). Baseline images were collected before the addition of compound 8 and time-lapsed images obtained at 30 second intervals after the addition of compound 8 (250 nM). Once stage baseline had been achieved, multiple washes were carried out and the media replaced. The cells were then exposed to ozone (˜2.1 ppm) and monitored every 30 seconds for 15 minutes. Ozone was generated from medical grade oxygen (Valley Gas) via a model V1-0 ultraviolet ozonator (OREC) and analyzed with a Dasibi (Glendale) direct-reading instrument. Ozone concentrations were maintained by adjusting both the intensity of the ultraviolet light and the flow rate of oxygen. For each experiment, images were collected from six stages, with a minimum of five cells per position (a minimum of 30 cells per […]).
In another embodiment of the invention, human bronchial epitelial cells were incubated with compound 4 to determine ozone's role in cell biology. […] Based on studies why compound 4 and structurally related compounds are not fluorescent, it is believed that the hydroxymethyl group 4 may have been oxidized to give a more electron-withdrawing group, possible a carboxyl or aldehyde group, and so emit a strong fluorescence signal. To circumvent such an oxidation event, compound 8 was prepared specific for ozone. […] Once a steady baseline signal had been established and maintained for five minutes, ozone gas was generated within the airtight environmental chamber that housed the cell-culture dishes, and fluorescent signals were monitored using live-cell microscopy for approximately 15 minutes.
FIGS. 16A-H are photographs of live-cell imaging of human bronchial epithelial cells in the presence of ozone using compound 8. The left-hand panels (FIGS. A-E) are pseudocolour images that indicate the changes in emission intensity over time, and the right-hand panels show differential interference contrast images of the bronchial epithelial cells. FIG. 16A is before the addition of compound 8 (0 seconds). FIG. 16B illustrates the cell at 107 seconds that is a steady state intensity reached with compound 8 at 250 nM. FIG. 16C illustrates the cell at 326 seconds when ozone flow is started. FIG. 16D illustrates the cell at 536 seconds with the emission intensity increasing. FIG. 16E illustrates the cell at 675 seconds when emission maximum is reached. FIG. 16F illustrates the cell at 820 seconds when the cell starts to die. FIG. 16G illustrates the cell at 969 seconds where the cell emission continues to fall. FIG. 16H illustrates the cell at 1148 seconds when the ozone flow is stopped.

[3] = Air pollutant specificity; conditions: acid 250 μM, metal 100 nM, 30 minutes at 37° C.
Description: FIG. 3B illustrates Ozone specificity against other air pollutants: Sample A=no additive, Sample B=ozone, Sample C=HNO3, Sample D=H2SO4, Sample E=Pb, Sample F=Pd, Sample G=Pt. [Acid]=250 μM. [Metal]=100 nM. The acid samples were incubated in 5:95 MeOH/pure water for 30 minutes at 37° C. The metal samples were incubated in 5:95 MeOH/pH 7 buffer for 30 minutes at 37° C.
A number of other pollutants were screened to ensure that ozone was selectively detected. Nitrogen dioxide and sulfur dioxide convert to their corresponding acids in aqueous solution so nitric acid and sulfuric acid were screened. Lead, palladium and platinum, which are known pollutants emitted from automobiles, were also screened. […]
Acids: HNO3 or H2SO4 (10 μL of 0.1 M solution; [acid]final=250 μM) and solution A (5.0 μL, [compound 4]final=12.5 μM) were added to a mixture of MeOH/pure water solution (5:95) (4.0 mL), and the samples were incubated at 37° C. for 30 minutes before fluorescence measurement. […]
Metals: Pb, Pd or Pt solution (40 μL of 10 μM solution; [Metal]final=100 nM) and solution A (5.0 μL, [compound 4]final=12.5 μM) were added to a mixture of MeOH/pH 7 buffer ([PO4^3−]=5 mM) (5:95) (4.0 mL), and the samples were incubated at 37° C. for 30 minutes before fluorescence measurement. […]

[4] = Ozone detection in ambient (outdoor) air; conditions: 8 hours
Description: In all cases, sensor 4=12.5 μM and all ozone assays were performed in 5:95 MeOH/pH 7 buffer. Solutions of senor 4 in 5:95 MeOH/pH 7 buffer were prepared and exposed to ambient air in various locations throughout a city on a hot, sunny day (˜32° C.) for 8 hours. A negative control was prepared in the same manner but incubated at 37° C. in a closed vial for 8 hours. […] Solutions of senor 4 ([4]final =12.5 μM) in 5:95 MeOH/pH 7 buffer ([PO4^3−]=5 mM) solution (4.0 mL) were prepared, and the samples were placed in high traffic outdoor areas for 8 hours. The samples were not exposed directly to sunlight. A negative control was prepared in the same manner but incubated at 37° C. in a closed vial for 8 hours. Following the 8 hour incubation period, the fluorescence of each sample was measured. Ozone detection in ambient air. Solution A (5.0 μL, [compound 4]final=12.5 μM) was added to a mixture of MeOH/pH 7 buffer ([PO4^3−]=5 mM) (5:95) (4.0 mL), and 4 samples were placed in 4 outdoor areas throughout University of Pittsburgh campus for 8 hours (high temperature=32.2° C.; AQI=43; PM2.5=64) on Jun. […] The samples were not exposed to direct sunlight. […] For each location, triplicate replicas were performed.

C=CCCOc1cc2oc3cc(=O)c(Cl)cc-3c(-c3ccccc3CO)c2cc1Cl [compound 4]
background signal (fluorescence intensity, λem=523 nm) [1]: 0.0377×10^5 | cell permeability [2]: cell permeable | fluorescence inside the cells in the absence of external ozone ([2]; no external ozone): converted to a fluorescent compound inside the cells | fluorescent signal with other air pollutants (species C-G) [3]: none of these species C-G produced a fluorescent signal | ozone level correlating to S/B, based on linear regression [4]: 13-22 ppb | S/B ([4]; 5:95 MeOH/pH 7 buffer): 10-17
